Test results from patent publication US12077503B2, “Substituted cyclic amides and their use as herbicides” (FMC CORPORATION, priority 2015, dated 2024).

Legend:
Type in all cases: in vivo
[1] = tested on: barnyardgrass (Echinochloa crus-galli); assay: Test G Pre-Emergence Protocol; details: Echinochloa crus-galli, pre-emergence, 312 h, evaluated after 13 days
How it was run: (§1)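 Visual injury (0–100) at day 13 after a single pre-emergence spray. Rates: 15.625, 62.5, 250 g/ha in acetone–water 50:50 with 0.5% Tween 20. Growth conditions: 24/16° C, 14 h light, 65% humidity.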

[2] = tested on: corn (Zea mays); assay: Test G Pre-Emergence Protocol; details: Zea mays, pre-emergence, 312 h, evaluated after 13 days
How it was run: as §1

[3] = tested on: giant foxtail (Setaria faberi); assay: Test G Pre-Emergence Protocol; details: Setaria faberi, pre-emergence, 312 h, evaluated after 13 days
How it was run: as §1

[4] = tested on: ivy-leaved morning glory (Ipomoea hederacea); assay: Test G Pre-Emergence Protocol; details: Ipomoea, pre-emergence, 312 h, evaluated after 13 days
How it was run: as §1

[5] = tested on: redroot pigweed (Amaranthus retroflexus); assay: Test G Pre-Emergence Protocol; details: Amaranthus retroflexus, pre-emergence, 312 h, evaluated after 13 days
How it was run: as §1

[6] = tested on: velvetleaf (Abutilon theophrasti); assay: Test G Pre-Emergence Protocol; details: Abutilon theophrasti, pre-emergence, 312 h, evaluated after 13 days
How it was run: as §1

[7] = tested on: barnyardgrass (Echinochloa crus-galli); assay: Test G Post-Emergence Protocol; details: Echinochloa crus-galli, post-emergence, 312 h, read-out: Barnyardgrass damage rating
How it was run: (§2)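 A glasshouse post-emergence test: 8-day-old plants sprayed at 15.625, 62.5 or 250 g/ha, then grown at 24/16 °C day/night with 14 h light and 65% humidity. Damage rated 13 days later, 0–100.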

[8] = tested on: corn (Zea mays); assay: Test G Post-Emergence Protocol; details: Zea mays, post-emergence, 312 h, read-out: Corn damage rating
How it was run: as §2

[9] = tested on: giant foxtail (Setaria faberi); assay: Test G Post-Emergence Protocol; details: Setaria faberi, post-emergence, 312 h, read-out: Foxtail, Giant damage rating
How it was run: as §2

[10] = tested on: ivy-leaved morning glory (Ipomoea hederacea); assay: Test G Post-Emergence Protocol; details: Ipomoea, post-emergence, 312 h, read-out: Morningglory, Ivy-leaved damage rating
How it was run: as §2

[11] = tested on: redroot pigweed (Amaranthus retroflexus); assay: Test G Post-Emergence Protocol; details: Amaranthus retroflexus, post-emergence, 312 h, read-out: Pigweed, Redroot damage rating
How it was run: as §2

[12] = tested on: velvetleaf (Abutilon theophrasti); assay: Test G Post-Emergence Protocol; details: Abutilon theophrasti, post-emergence, 312 h, read-out: Velvetleaf damage rating
How it was run: as §2

[13] = 15.625 g ai/ha, evaluated after 13 days (100=total damage to plant; 0=no damage to plant)
[14] = 62.5 g ai/ha, evaluated after 13 days, 100=total damage to plant, 0=no damage to plant
[15] = 250 g ai/ha, evaluated after 13 days, 100=total damage to plant, 0=no damage to plant

Compound: CN1C[C@@H](c2ccc(C(F)(F)F)cc2)[C@H](C(=O)Nc2ccnc(Cl)c2F)C1=O (racemic) [Compound 1656]
- pest or weed control at 15.625 g/ha ([1]; 15.625 g ai/ha, read-out: Barnyardgrass damage rating (100=total damage to plant; 0=no damage to plant)): 0%
- pest or weed control at 62.5 g/ha ([1]; 62.5 g ai/ha, 100=total damage to plant, 0=no damage to plant, read-out: Barnyardgrass damage rating): 0%
- pest or weed control at 250 g/ha ([1]; 250 g ai/ha, read-out: Barnyardgrass damage rating (100=total damage to plant; 0=no damage to plant)): 20%
- plant injury at 15.625 g/ha ([2]; 15.625 g ai/ha, read-out: Corn damage rating (100=total damage to plant; 0=no damage to plant)): 0%
- plant injury at 62.5 g/ha ([2]; 62.5 g ai/ha, 100=total damage to plant, 0=no damage to plant, read-out: Corn damage rating): 0%
- plant injury at 250 g/ha ([2]; 250 g ai/ha, read-out: Corn damage rating (100=total damage to plant; 0=no damage to plant)): 0%
- pest or weed control at 15.625 g/ha ([3]; 15.625 g ai/ha, read-out: Foxtail, Giant damage rating (100=total damage to plant; 0=no damage to plant)): 0%
- pest or weed control at 62.5 g/ha ([3]; 62.5 g ai/ha, 100=total damage to plant, 0=no damage to plant, read-out: Foxtail, Giant damage rating): 0%
- pest or weed control at 250 g/ha ([3]; 250 g ai/ha, read-out: Foxtail, Giant damage rating (100=total damage to plant; 0=no damage to plant)): 80%
- pest or weed control at 15.625 g/ha ([4]; 15.625 g ai/ha, read-out: Morningglory, Ivy-leaved damage rating (100=total damage to plant; 0=no damage to plant)): 0%
- pest or weed control at 62.5 g/ha ([4]; 62.5 g ai/ha, 100=total damage to plant, 0=no damage to plant, read-out: Morningglory, Ivy-leaved damage rating): 20%
- pest or weed control at 250 g/ha ([4]; 250 g ai/ha, read-out: Morningglory, Ivy-leaved damage rating (100=total damage to plant; 0=no damage to plant)): 0%
- pest or weed control at 15.625 g/ha ([5]; 15.625 g ai/ha, read-out: Pigweed, Redroot damage rating (100=total damage to plant; 0=no damage to plant)): 0%
- pest or weed control at 62.5 g/ha ([5]; 62.5 g ai/ha, 100=total damage to plant, 0=no damage to plant, read-out: Pigweed, Redroot damage rating): 0%
- pest or weed control at 250 g/ha ([5]; 250 g ai/ha, read-out: Pigweed, Redroot damage rating (100=total damage to plant; 0=no damage to plant)): 0%
- pest or weed control at 15.625 g/ha ([6]; 15.625 g ai/ha, read-out: Velvetleaf damage rating (100=total damage to plant; 0=no damage to plant)): 0%
- pest or weed control at 62.5 g/ha ([6]; 62.5 g ai/ha, 100=total damage to plant, 0=no damage to plant, read-out: Velvetleaf damage rating): 0%
- pest or weed control at 250 g/ha ([6]; 250 g ai/ha, read-out: Velvetleaf damage rating (100=total damage to plant; 0=no damage to plant)): 0%
- pest or weed control at 15.625 g/ha [7, 13]: 10%
- pest or weed control at 62.5 g/ha [7, 14]: 10%
- pest or weed control at 250 g/ha [7, 15]: 30%
- plant injury at 15.625 g/ha [8, 13]: 0%
- plant injury at 62.5 g/ha [8, 14]: 0%
- plant injury at 250 g/ha [8, 15]: 0%
- pest or weed control at 15.625 g/ha [9, 13]: 20%
- pest or weed control at 62.5 g/ha [9, 14]: 30%
- pest or weed control at 250 g/ha [9, 15]: 80%
- pest or weed control at 15.625 g/ha [10, 13]: 0%
- pest or weed control at 62.5 g/ha [10, 14]: 0%
- pest or weed control at 250 g/ha [10, 15]: 0%
- pest or weed control at 15.625 g/ha [11, 13]: 0%
- pest or weed control at 62.5 g/ha [11, 14]: 20%
- pest or weed control at 250 g/ha [11, 15]: 30%
- pest or weed control at 15.625 g/ha [12, 13]: 0%
- pest or weed control at 62.5 g/ha [12, 14]: 0%
- pest or weed control at 250 g/ha [12, 15]: 20%
